“And” between values parts separate entries of the source, which are not always exact repeats. Equal entries are not always repeated. Toxic doses and inconclusive results are not listed. How the source made its calls: active means survival T/C of 150% or more; inactive means T/C below 125% in these data.
Tested on: BDF1 mice, P388 leukemia ip, median survival T/C
Assay: NCI In Vivo Anticancer Drug Screen. Data for tumor model P388 Leukemia (intraperitoneal) in B6D2F1 (BDF1) mice
Settings: endpoint: median survival time, higher = longer survival
Method in brief: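 Vehicle-dosed animals serve as the reference; survival of compound-dosed, tumour-implanted mice is divided by it.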

[1] = dose: 100.0 mg/kg/injection, schedule: Q01DX009 (ip), vehicle: saline with Tween-80
[2] = dose: 200.0 mg/kg/injection, schedule: Q01DX009 (ip), vehicle: saline with Tween-80
[3] = dose: 100.0 mg/kg/injection, schedule: Q04DX003 (ip), vehicle: saline with Tween-80
[4] = dose: 200.0 mg/kg/injection, schedule: Q04DX003 (ip), vehicle: saline with Tween-80
[5] = dose: 400.0 mg/kg/injection, schedule: Q04DX003 (ip), vehicle: saline with Tween-80
[6] = dose: 50.0 mg/kg/injection, schedule: Q01DX009 (ip), vehicle: saline with Tween-80
[7] = dose: 100.0 mg/kg/injection, schedule: Q04DX003 (ip), vehicle: Klucel (hydroxypropylcellulose) (HPC)

Measured: T/C

COC(=O)[C@@]12OC[C@]34[C@H]([C@@H](O)[C@@H]1O)[C@@]1(C)CC(=O)C(O)=C(C)[C@@H]1C[C@H]3OC(=O)[C@H](OC(=O)c1ccccc1)[C@@H]24
inactive: dose: 31.0 micrograms/kg/injection, schedule: Q01DX009 (ip), vehicle: saline + alcohol 86 % of control and 90 % of control and 100 % of control | dose: 61.0 micrograms/kg/injection, schedule: Q01DX009 (ip), vehicle: saline + alcohol 100 % of control | dose: 62.0 micrograms/kg/injection, schedule: Q01DX009 (ip), vehicle: saline + alcohol 113 % of control | dose: 125.0 micrograms/kg/injection, schedule: Q01DX009 (ip), vehicle: saline + alcohol 95 % of control and 109 % of control | dose: 250.0 micrograms/kg/injection, schedule: Q01DX009 (ip), vehicle: saline + alcohol 100 % of control and 109 % of control | dose: 500.0 micrograms/kg/injection, schedule: Q01DX009 (ip), vehicle: saline + alcohol 100 % of control and 113 % of control | dose: 1000.0 micrograms/kg/injection, schedule: Q01DX009 (ip), vehicle: saline + alcohol 100 % of control and 118 % of control | dose: 4000.0 micrograms/kg/injection, schedule: Q01DX009 (ip), vehicle: saline + alcohol 109 % of control

CC(C)C(O)(C(=O)NN)C(=O)NN
inactive: [1] 100 % of control | [2] 109 % of control | dose: 400.0 mg/kg/injection, schedule: Q01DX009 (ip), vehicle: saline with Tween-80 100 % of control

CCOC1=C(N2CC2)C(=O)C(OCC)=C(N2CC2)C1=O
242 % of control and 105 % of control: dose: 2.0 mg/kg/injection, schedule: Q01DX009 (ip), vehicle: saline
inactive: dose: 0.07 mg/kg/injection, schedule: Q01DX009 (ip), vehicle: saline with Tween-80 95 % of control | dose: 0.25 mg/kg/injection, schedule: Q04DX003 (ip), vehicle: saline 109 % of control | dose: 0.3 mg/kg/injection, schedule: Q01DX009 (ip), vehicle: saline with Tween-80 122 % of control | dose: 0.63 mg/kg/injection, schedule: Q04DX003 (ip), vehicle: saline 122 % of control | dose: 4.0 mg/kg/injection, schedule: Q01DX009 (ip), vehicle: saline 114 % of control
active: dose: 0.25 mg/kg/injection, schedule: Q01DX009 (ip), vehicle: saline 165 % of control | dose: 0.5 mg/kg/injection, schedule: Q01DX009 (ip), vehicle: saline 152 % of control and 190 % of control | dose: 0.5 mg/kg/injection, schedule: Q04DX003 (ip), vehicle: saline 154 % of control | dose: 0.6 mg/kg/injection, schedule: Q01DX009 (ip), vehicle: saline with Tween-80 153 % of control | dose: 1.0 mg/kg/injection, schedule: Q01DX009 (ip), vehicle: saline 245 % of control and 195 % of control | dose: 1.0 mg/kg/injection, schedule: Q04DX003 (ip), vehicle: saline 200 % of control | dose: 2.5 mg/kg/injection, schedule: Q04DX003 (ip), vehicle: saline 172 % of control

COc1ccc2c(c1OC)C(=O)O[C@@H]2[C@H]1c2c(cc3c(c2OC)OCO3)CCN1C
inactive: dose: 31.3 mg/kg/injection, schedule: Q01DX010 (ip), vehicle: saline 95 % of control | dose: 62.5 mg/kg/injection, schedule: Q01DX010 (ip), vehicle: saline 104 % of control | dose: 125.0 mg/kg/injection, schedule: Q01DX010 (ip), vehicle: saline 100 % of control | dose: 250.0 mg/kg/injection, schedule: Q01DX010 (ip), vehicle: saline 100 % of control

O=C(c1ccccn1)C12CC3CC(CC(C3)C1)C2
inactive: [3] 95 % of control | [4] 105 % of control | [5] 95 % of control

COc1ccc2c(c1)N(C(=O)N(CCOC(=O)Nc1ccccc1)CCOC(=O)Nc1ccccc1)c1ccccc1S2
inactive: dose: 25.0 mg/kg/injection, schedule: Q01DX009 (ip), vehicle: saline with Tween-80 95 % of control | [6] 91 % of control

CCCCCCCN1C=CCC(S(=O)(=O)N2CCOCC2)=C1
inactive: [6] 109 % of control | [1] 99 % of control | [2] 109 % of control

CCCCCCCCS.[Ni]
inactive: dose: 100.0 mg/kg/injection, schedule: Q01DX001 (ip), vehicle: Klucel (hydroxypropylcellulose) (HPC) 100 % of control | [7] 113 % of control | dose: 200.0 mg/kg/injection, schedule: Q01DX001 (ip), vehicle: Klucel (hydroxypropylcellulose) (HPC) 100 % of control

CCCCS(=N)(=O)CC[C@H](N)C(=O)O (stereo not given in full)
inactive: dose: 50.0 mg/kg/injection, schedule: Q01DX005 (ip), vehicle: saline 96 % of control | dose: 100.0 mg/kg/injection, schedule: Q01DX005 (ip), vehicle: saline 96 % of control | dose: 200.0 mg/kg/injection, schedule: Q01DX005 (ip), vehicle: saline 91 % of control | dose: 400.0 mg/kg/injection, schedule: Q01DX005 (ip), vehicle: saline 91 % of control

CCN(CC)CC(O)CNC(=O)c1c2nc3c(C(=O)NCC(O)CN(CC)CC)ccc(C)c3oc-2c(C)c(=O)c1N (stereo not given)
inactive: dose: 50.0 mg/kg/injection, schedule: Q04DX002 (ip), vehicle: saline with Tween-80 110 % of control | dose: 100.0 mg/kg/injection, schedule: Q04DX002 (ip), vehicle: saline with Tween-80 106 % of control and 120 % of control

Cc1nc2ccccc2nc1CC(O)(c1ccccc1)c1cccc2ccccc12 (stereo not given)
inactive: [6] 94 % of control | [1] 95 % of control | [2] 97 % of control

Nc1nc(=S)c2ncn(C3OC(COC(=O)c4ccc([N+](=O)[O-])cc4)C(OC(=O)c4ccc([N+](=O)[O-])cc4)C3OC(=O)c3ccc([N+](=O)[O-])cc3)c2[nH]1 (stereo not given)
inactive: dose: 100.0 mg/kg/injection, schedule: Q01DX009 (ip), vehicle: Klucel (hydroxypropylcellulose) (HPC) 111 % of control | [7] 91 % of control | dose: 200.0 mg/kg/injection, schedule: Q01DX009 (ip), vehicle: Klucel (hydroxypropylcellulose) (HPC) 103 % of control | dose: 200.0 mg/kg/injection, schedule: Q04DX003 (ip), vehicle: Klucel (hydroxypropylcellulose) (HPC) 91 % of control

CN(C)CCCNc1ccc(O)c2c1C(=O)c1ccccc1C2=O
inactive: dose: 6.25 mg/kg/injection, schedule: Q01DX009 (ip), vehicle: saline 91 % of control | dose: 12.5 mg/kg/injection, schedule: Q01DX009 (ip), vehicle: saline 110 % of control and 114 % of control | dose: 25.0 mg/kg/injection, schedule: Q01DX009 (ip), vehicle: saline 103 % of control and 109 % of control and 112 % of control | dose: 100.0 mg/kg/injection, schedule: Q04DX003 (ip), vehicle: saline 96 % of control | dose: 200.0 mg/kg/injection, schedule: Q04DX003 (ip), vehicle: saline 112 % of control

CCC1(O)CC2CN(CCc3c([nH]c4ccccc34)C(C(=O)OC)(c3cc4c(cc3OC)N(C)C3C(O)(C(N)=O)C(O)C5(CC)C=CCN6CCC43C65)C2)C1 (stereo not given) (tested in a mixture with another compound)
inactive: dose: 3.0 mg/kg/injection, schedule: Q04DX003 (ip), vehicle: saline 101 % of control | dose: 4000.0 micrograms/kg/injection, schedule: Q04DX003 (ip), vehicle: saline 96 % of control
active: dose: 0.65 mg/kg/injection, schedule: Q04DX003 (ip), vehicle: saline 188 % of control | dose: 0.87 mg/kg/injection, schedule: Q04DX003 (ip), vehicle: saline 154 % of control | dose: 1.08 mg/kg/injection, schedule: Q04DX003 (ip), vehicle: saline 223 % of control | dose: 1.3 mg/kg/injection, schedule: Q04DX003 (ip), vehicle: saline 187 % of control | dose: 1.8 mg/kg/injection, schedule: Q04DX003 (ip), vehicle: saline 238 % of control | dose: 2.0 mg/kg/injection, schedule: Q04DX003 (ip), vehicle: saline 163 % of control | dose: 500.0 micrograms/kg/injection, schedule: Q04DX003 (ip), vehicle: saline 175 % of control | dose: 648.0 micrograms/kg/injection, schedule: Q04DX003 (ip), vehicle: saline 203 % of control | dose: 1000.0 micrograms/kg/injection, schedule: Q04DX003 (ip), vehicle: saline 250 % of control | dose: 1080.0 micrograms/kg/injection, schedule: Q04DX003 (ip), vehicle: saline 237 % of control | dose: 1800.0 micrograms/kg/injection, schedule: Q04DX003 (ip), vehicle: saline 237 % of control | dose: 2000.0 micrograms/kg/injection, schedule: Q04DX003 (ip), vehicle: saline 211 % of control

C=CCCCCCCCCC(=O)Cl
inactive: [3] 108 % of control | [4] 104 % of control | [5] 100 % of control

O=C1c2ccccc2C(=O)N1CC[P+](c1ccc(Cl)cc1)(c1ccc(Cl)cc1)c1ccc(Cl)cc1
inactive: dose: 0.78 mg/kg/injection, schedule: Q01DX009 (ip), vehicle: water 103 % of control | dose: 1.56 mg/kg/injection, schedule: Q01DX009 (ip), vehicle: water 103 % of control | dose: 3.13 mg/kg/injection, schedule: Q01DX009 (ip), vehicle: water 103 % of control | dose: 6.25 mg/kg/injection, schedule: Q01DX009 (ip), vehicle: water 110 % of control | dose: 12.5 mg/kg/injection, schedule: Q01DX009 (ip), vehicle: water 103 % of control | dose: 25.0 mg/kg/injection, schedule: Q01DX009 (ip), vehicle: water 103 % of control

Source: PubChem BioAssay AID328 (DTP/NCI, 2004)
